Data as given in PubChem BioAssay (NCI).
Several values for one entry are separate records, joined by “and”; a condition that tells them apart may be missing. Equal entries are not always repeated.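 Interpolation was linear, between the two tested concentrations surrounding the appropriate level; five concentrations were tested over 48 hours in 96-well plates. Here, GI50 denotes the concentration required for 50% inhibition of growth. TGI: concentration producing complete growth inhibition.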

How the values were obtained:
Experiment in all cases: DTP human tumour cell line panel, 48 h
CCRF-CEM leukemia = test system: CCRF-CEM leukemia
RXF 393 renal = test system: RXF 393 renal
TK-10 renal = test system: TK-10 renal
SK-OV-3 ovarian = test system: SK-OV-3 ovarian
HCT-116 colon = test system: HCT-116 colon
SK-MEL-5 melanoma = test system: SK-MEL-5 melanoma
SF-295 CNS = test system: SF-295 CNS
RPMI-8226 leukemia = test system: RPMI-8226 leukemia
OVCAR-5 ovarian = test system: OVCAR-5 ovarian
NCI/ADR-RES ovarian = test system: NCI/ADR-RES ovarian

Structure (SMILES) | TGI (CCRF-CEM leukemia) [µM] | TGI (RXF 393 renal) [µM] | TGI (TK-10 renal) [µM] | TGI (SK-OV-3 ovarian) [µM] | TGI (HCT-116 colon) [µM] | TGI (SK-MEL-5 melanoma) [µM] | TGI (SF-295 CNS) [µM] | TGI (RPMI-8226 leukemia) [µM] | TGI (OVCAR-5 ovarian) [µM] | TGI (NCI/ADR-RES ovarian) [µM] | GI50 (CCRF-CEM leukemia) | GI50 (RXF 393 renal) | GI50 (TK-10 renal) | GI50 (SK-OV-3 ovarian) [µM] | GI50 (HCT-116 colon) | GI50 (SK-MEL-5 melanoma) [µM] | GI50 (SF-295 CNS) | GI50 (RPMI-8226 leukemia) | GI50 (OVCAR-5 ovarian) | GI50 (NCI/ADR-RES ovarian)
Cc1cc(=O)oc2cc(OC(=O)N(CCCl)CCCl)ccc12 | > 100 | > 100 | > 100 | > 100 | > 100 | > 100 | > 100 | > 100 | > 100 | > 100 | – | – | – | – | – | – | – | – | – | –
Clc1ccc2c(c1)C(N1CCNCC1)=Nc1ccccc1O2 | 4.77 | 2.77 | 4.72 | 4.5 | 2.8 | 2.69 | 3.82 | 4.93 | 12.9 | 5.12 | 1.9 µM | 1.22 µM | 2.04 µM | 1.94 | 1.42 µM | 1.39 | 1.92 µM | 1.96 µM | 3.28 µM | 1.99 µM
Cn1cc(C2=C(c3cn(C)c4cc(N)ccc34)C(=O)NC2=O)c2ccccc21 | > 11.2 | 7.59 | 14.3 | > 25 | > 25 | 5.76 | > 25 | 11.6 | > 21.9 | 24.2 | 1.02 µM | 1.84 µM | 4.03 µM | 2.25 | 1.28 µM | 1.09 | 0.909 µM | 2.92 µM | 8.13 µM | 4.58 µM
COc1cc(/C=C2\CN(C(=O)CCN3CCC(=NO)CC3)C/C(=C\c3cc(OC)c(OC)c(OC)c3)C2=O)cc(OC)c1OC | 1.6 | 0.999 | 2.8 | 4.78 | 0.467 | 0.927 | 1.67 | 0.851 | 2.28 | > 100 | 0.266 µM | 0.354 µM | 1.18 µM | 1.87 | 0.206 µM | 0.302 | 0.656 µM | 0.268 µM | 0.874 µM | 2.71 µM
CSc1nsc(S/C=C\C(=O)c2ccc(C)cc2)n1 | – | 31.9 | 33.7 | > 100 | 25.7 | 6.88 | 40.4 | > 100 | 49.6 | 67.7 | – | 15.9 µM | 18.6 µM | 60.7 | 13 µM | 0.706 | 18.2 µM | 43 µM | 22.7 µM | 25.8 µM
CCOC(=O)c1c2c(n(Cc3ccccc3)c1C)-c1nc(Cc3ccccc3)[nH]c1C(=O)C2=O | 2.97 | 2.34 | 3.08 | 5.19 | 2.9 | 3.06 | 4.14 | 4.93 | 3.62 | 5.28 | 0.962 µM | 0.87 µM | 1.48 µM | 2.31 | 1.49 µM | 1.69 | 1.92 µM | 1.78 µM | 1.98 µM | 2.51 µM
CCCCN(CCCC)CCc1c(C)cc(C)c(CCN(CCCC)CCCC)c1O | > 100 | 7.23 | > 100 | 8.53 | 8.34 | 4.1 | 6.97 | 7.13 | > 100 | 88.1 | 3.12 µM | 2.4 µM | 3.03 µM | 2.68 | 1.87 µM | 1.97 | 2.2 µM | 2.24 µM | 3.26 µM | 3.63 µM
CCCCNC(=O)Oc1ccc(/C(=C(/CC)Cc2ccccc2)c2ccc(OCCN3CCCCCC3)cc2)cc1 | 93.5 | 32.1 | 90.5 | > 100 | 29 | 39.1 | 38.4 | 52.8 | > 100 | > 100 | 31.9 µM | 17.3 µM | 26.7 µM | > 100 | 15.6 µM | 19.9 | 18.3 µM | 24 µM | 96.3 µM | 42.1 µM
Cc1nn(CNc2ccccc2C(F)(F)F)c(=S)n1/N=C/c1ccc(F)cc1 | > 100 | > 100 | > 100 | > 100 | > 100 | > 100 | > 100 | > 100 | > 100 | > 100 | 14.2 µM | > 100 µM | 53.8 µM | > 100 | 91.2 µM | > 100 | > 100 µM | 48.5 µM | 73 µM | > 100 µM
COc1cc2ncnc3c2cc1OCCCCCN(C)Cc1ccc(Br)cc1N3 | > 100 | > 100 | > 100 | 1.09 | > 100 | > 100 | > 100 | > 100 | > 100 | > 100 | 10.2 µM and > 10 µM | 4.03 µM and 1.84 µM | 0.186 µM and 0.166 µM | 0.315 | 13.9 µM and 1.48 µM | 24 | 14.1 µM and 5.13 µM | 7.39 µM and 3.92 µM | 12.9 µM and 1.87 µM | 3.34 µM and 2.04 µM
Oc1c(CN2CCCC2)cc(CSCc2ccccc2)c2cccnc12 | 10.2 | 3.74 | 13.1 | 2.82 | 10.1 | 1.6 | 8.13 | 6.81 | 17.1 | 0.807 | 0.429 µM | 0.772 µM | 0.775 µM | 0.666 | 0.694 µM | 0.35 | 2.19 µM | 1.42 µM | 4.51 µM | 0.0989 µM
COC(=O)C(=O)C(C(=O)C(N)=O)c1nc2ccc(C(=O)c3ccccc3)cc2[nH]c1=O (stereo not drawn) | > 100 | > 100 | > 100 | > 100 | > 100 | > 100 | > 100 | > 100 | > 100 | > 100 | – | – | – | – | – | – | – | – | – | –
CC(C(=O)O)c1ccc(-c2ccccc2)c(F)c1 (stereo not drawn) | > 100 | > 100 | > 100 | > 100 | > 100 | > 100 | > 100 | > 100 | > 100 | > 100 | – | – | – | – | – | – | – | – | – | –
